Series [1] has as its system A549. As to the kind of experiment: Test A: Cytostatic cell culture assay (CC50), SRB, solid tumor cell lines. The conditions noted are these: Homo sapiens, A549, 120 h, read-out: CC50 Lung A549. An excerpt: Test A: Cytostatic Cell Culture Assay (CC50) for Solid Tumor Cell Lines
This assay is based on quantification of cell mass determination by a colorimetric detection of the cell associated proteins. The assay relies on the ability of sulforhodamine B (SRB) to bind to protein components of cells that have been fixed to tissue-culture plates by trichloroacetic acid (TCA). SRB is a bright-pink aminoxanthene dye with two sulfonic groups that bind to basic amino-acid residues under mild acidic conditions, and dissociate under basic conditions. As the binding of SRB is stochiometric, the amount of dye extracted from stained cells is directly proportional to the cell mass.
Cell lines: All cell lines are obtained from ATCC (Manassas, Va.). Cultivation media containing Glutamax, and trypsin are purchased from Invitrogen (Carlsbad, Calif.). Doxorubicin, Tubercidin, Clofarabine, TCA and SRB are from Sigma-Aldrich (St. Louis, Mo.). Gemcitabine is obtained from Moravek Biochemicals (Brea, Calif.)
• 1. Trypsinize the sub-confluent cells, count them, and adjust the cell concentrations according to the cell counts listed in Table 1. • 2. Distribute the cells into the 96-well plates in 150 μL of media. Incubate the plates overnight in humidified CO2 incubator at 37° C. • 3. Fix one plate of each cell line with TCA. Discard the cultivation media from the plates by flicking them gently and add 100 μL cold 10% (vol/vol) TCA to each well. Incubate the plates at 4 degree refrigerator for 1 hour. Discard TCA from the plates by flicking them gently. Rinse plates four times in a washing basin containing tap water. Store the plates at room temperature. These plates represent cell counts on day zero. • 4. Prepare a set of medium solutions containing various concentrations of tested compounds by making 5-fold serial dilutions in 96-well plate. Add 50 μL of the diluted compounds per well. Include controls with untreated cells and cells treated with doxorubicin, tubercidin, clofarabine and/or gemcitabine. • 5. Incubate the plates for 5 days at 37° C. • 6. Fix the plates with TCA. Discard the cultivation media from the plates by flicking them gently and add 100 μL cold 10% (vol/vol) TCA to each well. Incubate the plates at 4 degree refrigerator for 1 hour. Discard TCA from the plates by flicking them gently. Rinse plates four times in a washing basin containing tap water. • 7. Remove excess water by tapping the plates face down, gently on a paper towel. Allow the plates to air-dry at room temperature. • 8. Add 100 μL of 0.057% SRB solution in 1% (vol/vol) acetic acid to each well of the plates fixed with TCA on day zero and five. Leave at room temperature for 30 minutes. • 9. Flick the plates gently to discard SRB. Rinse the plates four times with 1% (vol/vol) Acetic Acid. • 10. Store the plates at 37° incubator to facilitate faster drying. • 11. Once the plates are completely dry, add 200 μL of 10 mM Tris base solution (pH 10.5) to each well. Leave at room temperature for 30 minutes for SRB to solubilize. • 12. Measure the OD at 500 nm in a microplate reader. • 13. Calculate the percentage of cell-growth inhibition using the next formula: % of control cell growth=100×(ODsample−mean ODday0)/(ODneg control−mean ODday0). For CC50 determination, plot a dose-response curves between the compound concentration and percent of growth inhibition. CC50 values can be derived by fitting dose-response curves using sigmoidal dose response equation.

The subject of series [2] is MT-4 T-lymphoid cell line. The series can be described thus: Test B: Cytostatic cell culture assay (CC50), CellTiter Glo, lymphoid tumor cell lines. To be noted: Homo sapiens, MT4, 120 h, read-out: CC50 T-lymphoid MT-4. (In general: Cellular ATP, detected with luciferase, serves as a proxy for viable cell number.)
Experimental: Test B: Cytostatic Cell Culture Assay (CC50) for Lymphoid Tumor Cell Lines
This test is typically performed with cell lines that are derived from hematological tumors and grow in suspension. An example of such cell line is human MT-4 T-lymphoid cell line used for the determination of cytostatic activity of tested compounds. […] Cells were passaged in suspension twice a week and maintained at densities below 500,000 cells/mL. For CC50 determination, cells were seeded into 384-well plates at 2,000 cells/well in 20 μL of culture medium. Compounds were serially diluted in culture medium and added in triplicate to a final assay volume of 40 μL/well. Plates were incubated for 5 days with tested compounds. At the end of incubation, cell viability was determined by addition of 40 μL of CellTiter Glo reagent followed by a luminescence read-out.
Data analysis and CC50 value calculations were done using GraphPad Prism software (GraphPad Software, San Diego, Calif.) by applying nonlinear regression.
For series [3], the system named is human tumor cell lines. As to the kind of experiment: Tests A and B, all tumor cell lines together. The format is cell-based. The conditions noted are these: read-out: CC50 Geometric mean all. How it is done: (§1) • 1. […] Fix one plate of each cell line with TCA. […] Discard TCA from the plates by flicking them gently. […] Store the plates at room temperature. These plates represent cell counts on day zero. • 4. […] Add 50 μL of the diluted compounds per well. […] Fix the plates with TCA. […] Discard TCA from the plates by flicking them gently. […] Leave at room temperature for 30 minutes. • 9. Flick the plates gently to discard SRB.
Plates were incubated for 5 days with tested compounds.

Series [4] relates to Du145. The series can be described thus: Test A: Cytostatic cell culture assay (CC50), SRB, solid tumor cell lines. To be noted: Homo sapiens, DU-145, 120 h, read-out: CC50 Prostate Du145. The format is cell-based. How it is done: (§2) Gemcitabine is obtained from Moravek Biochemicals (Brea, Calif.)
as §1

Series [5] relates to NCI H23. Described as above. The format is cell-based. The conditions noted are these: Homo sapiens, NCI-H23, 120 h, read-out: CC50 Lung NCI H23. How it is done: as §2, §1
Series [6] relates to HS578. The description is as above. The format is cell-based. To be noted: Homo sapiens, Hs578, 120 h, read-out: CC50 Breast HS578. On the procedure: as §2, §1
Series [7] concerns PC3. The series is described as above. The format is cell-based. The conditions noted are these: Homo sapiens, PC-3, 120 h, read-out: CC50 Prostate PC3. How it is done:
as §2, §1

Series [8] concerns HCT15. The description is as above. It counts as cell-based. The conditions noted are these: Homo sapiens, HCT-15, 120 h, read-out: CC50 Colon HCT15. On the procedure: as §2, §1
Series [9] concerns HCT116. Described as above. It counts as cell-based. To be noted: Homo sapiens, HCT-116, 120 h, read-out: CC50 Colon HCT116. How it is done:
as §2, §1

Series [10] concerns BT549. As to the kind of experiment: Test A: Cytostatic cell culture assay (CC50), SRB, solid tumor cell lines. The format is cell-based. To be noted: Homo sapiens, BT-549, 120 h; BT549 breast tumor cells, 5 days, SRB; read-out: CC50 Breast BT549. How it is done: as §2, §1

For the molecule `Nc1nc(Cl)nc2c1ncn2[C@@H]1O[C@H](CO)[C@@H](O)[C@@H]1F` [Clofarabine, reference compound], the 50% cytotoxic concentration (CC50) (as a rule, the concentration at which the toxic effect on the cells reaches its halfway point) is 86 nM in [1]; 51 nM in series [2]; 116 nM in [3]; 125 nM in series [4]; 40 nM in series [5]; 1240 nM in [6]. The values for the cytotoxic concentration (CC50) in series [7], in series [8] and in series [9] were 63 nM, 180 nM and 106 nM, respectively.

On to `COc1ccc(-c2cn([C@@H]3O[C@H](CO)[C@@H](O)[C@H]3O)c3ncnc(N)c23)cc1` [Compound 2b, 4-Amino-5-(4-methoxyphenyl)-7-(β-D-ribofuranosyl)-7H-pyrrolo[2,3-d]pyrimidine], for which the CC50 in series [1] turned out to be 701 nM; in series [2], 4300 nM; in series [3], 768 nM; in [4], 152 nM; in [5], 856 nM; in series [6], 811 nM. In addition, the half-maximal cytotoxic concentration (CC50) turned out to be 1110 nM in series [7], 544 nM in [8] and 633 nM in series [9].

As for `Nc1ncnc2c1c(-c1ccco1)cn2[C@@H]1O[C@H](CO)[C@@H](O)[C@H]1O` [Compound 2f, 4-Amino-5-(furan-2-yl)-7-(β-D-ribofuranosyl)-7H-pyrrolo[2,3-d]pyrimidine], the 50% cytotoxic concentration (CC50) in [1] is 35 nM; in series [2] it was 86 nM; in [3] it was 25.6 nM; in [4], 19 nM; in [5], 294 nM; in [6] it was 17 nM. Moreover, the results for the CC50 in series [7], in [8] and in series [9] were 4 nM, 3 nM and 48 nM, respectively.

In the case of `Nc1ncnc2c1c(-c1cccs1)cn2[C@@H]1O[C@H](CO)[C@@H](O)[C@H]1O` [Compound 2g, 4-Amino-7-(β-D-ribofuranosyl)-5-(thiophen-2-yl)-7H-pyrrolo[2,3-d]pyrimidine], the cytotoxic concentration (CC50) in series [1] amounted to 7 nM; in [2], 35 nM; in series [3] it was 22.6 nM; in [4], 133 nM; in [5], 3.7 nM; in series [6], 12 nM. For the same molecule, the CC50 in series [7] is 1620 nM; in series [8], 11 nM; in [9], 2.6 nM.

On to `Nc1ncnc2c1c(-c1ccc[nH]1)cn2[C@@H]1O[C@H](CO)[C@@H](O)[C@H]1O` [Compound 2k, 4-Amino-5-(1H-pyrrol-2-yl)-7-(β-D-ribofuranosyl)-7H-pyrrolo[2,3-d]pyrimidine], for which the melting point – broadly, the temperature of the solid-liquid transition – was 205 to 207 °C. In addition, the CC50 in [1] worked out at 160 nM. For the same molecule, the CC50 in series [3] was 128 nM. Moreover, the cytotoxic concentration (CC50) in series [5] was 333 nM. In addition, the CC50 in series [6] worked out at 113 nM. Besides, in series [7], the 50% cytotoxic concentration (CC50) came to 87.8 nM. Further, the cytotoxic concentration (CC50) in series [10] is 129 nM. Besides, in series [9], the CC50 was found to be 65.2 nM.

Molecule `Nc1ncnc2c1c(-c1cc[nH]n1)cn2[C@@H]1O[C@H](CO)[C@@H](O)[C@H]1O` [Compound 2n, 4-Amino-5-(1H-pyrazol-3-yl)-7-(β-D-ribofuranosyl)-7H-pyrrolo[2,3-d]pyrimidine] showed a melting point of 135 °C. In addition, the cytotoxic concentration (CC50) in series [2] was found to be 18 nM. The 50% cytotoxic concentration (CC50) in [3] worked out at 17.1 nM. Besides, the cytotoxic concentration (CC50) in series [5] is 35 nM. In addition, the CC50 in series [6] is 8 nM. In addition, the CC50 in series [7] is 15 nM. Moreover, in series [9], the CC50 turned out to be 18 nM.

Regarding `Nc1ncnc2c1c(-c1c[nH]nn1)cn2[C@@H]1O[C@H](CO)[C@@H](O)[C@H]1O` [Compound 2p, 4-Amino-7-(β-D-ribofuranosyl)-5-(1H-1,2,3-triazol-4-yl)-7H-pyrrolo[2,3-d]pyrimidine], the melting point is 286 to 288 °C. In addition, the 50% cytotoxic concentration (CC50) in series [2] is 18 nM. In series [3], the 50% cytotoxic concentration (CC50) was found to be 5.2 nM. Further, the CC50 in [5] is 4 nM. For the same molecule, the 50% cytotoxic concentration (CC50) in series [6] amounted to 3 nM. Moreover, in series [7], the CC50 is 5 nM. In addition, the cytotoxic concentration (CC50) in series [9] stood at 4 nM.

For the molecule `Nc1ncnc2c1c(-c1ncc[nH]1)cn2[C@@H]1O[C@H](CO)[C@@H](O)[C@H]1O` [Compound 2s, 4-Amino-5-(1H-imidazol-2-yl)-7-(β-D-ribofuranosyl)-7H-pyrrolo[2,3-d]pyrimidine], the melting point lay within 153 to 156 °C. The cytotoxic concentration (CC50) in series [2] came to 49 nM. The 50% cytotoxic concentration (CC50) in series [3] worked out at 3.8 nM. Further, the half-maximal cytotoxic concentration (CC50) in [5] was 6 nM. Besides, the CC50 in series [6] was determined as 1 nM. The CC50 in series [7] was determined as 1 nM. Besides, the cytotoxic concentration (CC50) in series [9] was 2 nM.

In the case of `Nc1ccn([C@@H]2O[C@H](CO)[C@@H](O)C2(F)F)c(=O)n1` [Gemcitabine, reference compound], the cytotoxic concentration (CC50) stood at 7 nM in series [1]; 2 nM in [2]; 2.4 nM in series [3]; 3 nM in series [4]; 2 nM in series [5]; 1 nM in [6]. The CC50 in series [7] turned out to be 6 nM; in [10], 1 nM; in series [8], 3 nM; in series [9], 2 nM.

Regarding `Nc1ncnc2c1ccn2[C@@H]1O[C@H](CO)[C@@H](O)[C@H]1O` [Tubercidin, reference compound], the cytotoxic concentration (CC50) in series [1] is 1 nM; in [2] it was 21 nM; in [3], 10.3 nM; in series [4], 18 nM; in [5] it was 11 nM; in series [6], 98 nM. The cytotoxic concentration (CC50) is 48 nM in series [7], 11 nM in series [8] and 1 nM in [9].

The record behind these values is patent publication US10294262B2, “7-deazapurine nucleosides for therapeutic uses” (Institute of Organic Chemistry and Biochemistry ASCR, V.V.I., priority 2009, dated 2019).
